{"source": "patent US20030228277A1", "about": "“Use of ROM production and release inhibitors to treat and prevent intraocular damage” (priority 2002, published 2003)", "key": {"macular hole formation": {"system": "macular hole formation", "settings": "200 μl intravitreal ophthalmic solution containing 5% histamine dihydrochloride; compared with untreated eyes", "protocol": "The described methods contemplate the use of histamine to reduce ROM levels and so as to eliminate the conditions which result in macular hole formation. Following the preliminary examination, an intravitreal injection of histamine dihydrochloride is given to patient's affected eye. If both eyes are affected, they may be treated separately. The eye is injected with the histamine ophthalmic solution intravitreally to promote a reduction of ROM levels. The eye to be treated is injected intravitreally with 200 μl of a histamine ophthalmic solution containing 5% histamine dihydrochloride to prevent or reduce ROM mediate intraocular damage."}, "[1]": {"system": "patient suffering from PDR", "settings": "approximately 100 μl of a 2% histamine-containing solution injected intraocularly, repeated every two weeks", "from_the_text": "As a preliminary step a patient is identified as suffering from PDR. […] The patient is monitored thereafter. The treatment is repeated every two weeks."}, "NADPH oxidase": {"target": "T1, NADPH oxidase (Homo sapiens, UniProt P04839)", "T1 construct": "host or cells: phagocytes (not specified further)", "settings": "membrane bound enzyme converting oxygen to superoxide; cited from earlier work"}, "[2]": {"system": "patient manifesting age-related macular degeneration", "assay": "Treatment of age-related macular degeneration, intravitreal ROM scavenger", "type": "in vivo, human", "settings": "intravitreal ophthalmic solution containing 0.75% superoxide dismutase; compared to untreated eyes", "protocol": "A patient manifesting age-related macular degeneration is treated with an intravitreal injection of a scavenger of ROM, namely superoxide dismutase.\nOnce a patient reaches the age of 60, increased ophthalmic surveillance is performed to detect the presence of ADM.\nWhen ADM is diagnosed, a regime of histamine treatment is commenced coupled with or without other treatments such as photocoagulation.\nFollowing the preliminary examination, an intravitreal injection of superoxide dismutase is given to the patient's affected eye manifesting ADM. […] The eye to be treated is injected intravitreally with an ophthalmic solution containing 0.75% superoxide dismutase to prevent or reduce ROM mediate intraocular damage.\nBecause of the possibility of reoccurrence, the patient should return for periodic examinations on a monthly basis thereafter. […] Additional superoxide dismutase and/or laser treatments may be required if indicia of reoccurring neovascularization are observed."}, "[3]": {"system": "diabetic patient manifesting preproliferative diabetic retinopathy", "settings": "intravitreal ophthalmic solution containing 1% histamine diphosphate; compared to an untreated individual", "method": "A diabetic patient manifesting preproliferative diabetic retinopathy is treated for this complication of diabetes mellitus through the intravitreal injection of a histamine compound.\nThis increased surveillance should include periodic retinal examinations and fluorescein angiograms to monitor the extent of venous beading, IRMA, and retinal ischemia.\nWhen preproliferative diabetic retinopathy begins reaching the proliferative stage, treatment with an ROM inhibitor or scavenger is commenced. This stage is defined as the presence of venous beading in 2 or more quadrants, IRMA in one or more quadrants, and/or microaneurysm and dot hemorrhages in all quadrants. Once these indicia are present, the administration of a ROM inhibitor or scavenger is initiated.\nThe patient receives a full ophthalmic examination to establish a baseline of ocular health. […]\nAfter treatment, the patient's eyes are examined on days one (1), two (2), seven (7), fifteen (15), thirty (30) and sixty (60). On each examination day, the patient is monitored. Additionally, the patient is monitored for posterior vitreous detachments using indirect ophthalmoscopy with scleral depression. Finally, the extent of PDR presented by the patient is continuously monitored through periodic retinal examinations and fluorescein angiograms to monitor the extent of venous beading, IRMA, and retinal ischemia."}, "[4]": {"system": "diabetic patient manifesting proliferative diabetic retinopathy", "settings": "ophthalmic gel containing 0.5% histamine dihydrochloride; compared with patients who received no histamine", "from_the_text": "The purpose of this treatment is to reduce the extent of proliferative diabetic retinopathy, to prevent further manifestations of the disease after removal of any extraretinal neovascularized tissue, and to reduce the likelihood of retinal detachment.\nA patient presenting proliferative diabetic retinopathy receives the histamine treatment described herein in combination with surgical treatment of the neovascularized tissue.\nOnce diagnosed as entering the proliferative stage, the patient receives a full ophthalmic examination to establish a baseline of ocular health. […]\nAfter treatment, the patients' eyes are examined on days one (1), two (2), seven (7), fifteen (15), thirty (30) and sixty (60). On each examination day, the patient is monitored. Additionally, the patient is monitored for posterior vitreous detachments using indirect ophthalmoscopy with scleral depression. Finally, the extent of PDR presented by the patient is continuously monitored through periodic retinal examinations and fluorescein angiograms to monitor the extent of venous beading, IRMA, retinal ischemia, neovascularization, and vitreal hemorrhage. […]"}}, "data": [{"compound": "NCCc1c[nH]cn1", "note": "[histamine]", "values": [{"measurement": "incidence of macular hole formation", "setting": "macular hole formation", "value": "reduction in the incidence of macular hole formation"}, {"measurement": "symptoms associated with PDR", "setting": "[1]", "value": "reduction in symptoms associated with PDR"}]}, {"compound": "NC(=O)C1=CN([C@@H]2O[C@H](COP(=O)(O)OP(=O)(O)OC[C@H]3O[C@@H](n4cnc5c(N)ncnc54)[C@H](O)[C@@H]3O)[C@@H](O)[C@H]2O)C=CC1", "note": "[NADH]", "values": [{"measurement": "Km", "setting": "NADPH oxidase", "value": 450, "unit": "µM"}]}, {"compound": "NC(=O)C1=CN([C@@H]2O[C@H](COP(=O)(O)OP(=O)(O)OC[C@H]3O[C@@H](n4cnc5c(N)ncnc54)[C@H](OP(=O)(O)O)[C@@H]3O)[C@@H](O)[C@H]2O)C=CC1", "note": "[NADPH]", "values": [{"measurement": "Km", "setting": "NADPH oxidase", "value": 45, "unit": "µM"}]}, {"compound": "superoxide dismutase", "values": [{"measurement": "ocular health", "setting": "[2]", "value": "improvement in ocular health"}]}, {"compound": "histamine diphosphate", "values": [{"measurement": "development of proliferative diabetic retinopathy", "setting": "[3]", "value": "reduction in the development of proliferative diabetic retinopathy"}]}, {"compound": "Cl.Cl.NCCc1c[nH]cn1", "note": "[histamine dihydrochloride]", "values": [{"measurement": "development of posterior vitreous detachments", "setting": "[4]", "value": "reduction in the development of posterior vitreous detachments"}]}]}
